Assay [1] deals with H-Ras-F cells. Kind of assay: Proliferation of H-Ras-F cells (control experiments). Type of assay: cell-based.
Assay [2] concerns HPAC (human pancreatic adenocarcinoma cells). Description: Proliferation of HPAC cells, Trypan Blue exclusion. Type of assay: cell-based. To be noted: 48 hours. As for the experimental part: The malignant human cell line HPAC (human pancreatic adenocarcinoma cells) was used in this study. The cells were seeded at a concentration of 2×10^5/ml in 24 well culture plate (Costar, Cambridge, Mass). […] Varying amounts of the stock solutions were then used to treat the HPAC cells. The final concentration of the farnesol analogs in the culture plate wells ranged from 0 nM (ethanol-treated control) to 500 nM. The plate was then incubated at 37° C. under a 5% CO2-humidified atmosphere for 48 hours. The total viable cells from each well were determined by Trypan Blue (0.4%) exclusion (Gibco, N.Y.) followed by cell counting.

The next assay concerns H-Ras-GG cells. Kind of assay: Cell morphology of lovastatin-treated H-Ras-GG cells. The assay is classed as cell-based. Conditions: 25 μM lovastatin 24 h, then analog 24 h. As to the method: (§1) It has been well established that levels of lovastatin that completely block the mevalonate pathway result in cell cycle blockade, significant cytotoxicity, and a sharp change in cell appearance to a rounded morphology. The effects of lovastatin on the cell morphology of H-Ras-F and H-Ras-GG cells treated with FPP, GGPP, 3-vFPP, 3-vGGPP, 3-alFPP, and 3-alGGPP were photographed and the results are shown on FIG. 9 (H-Ras-F) and 8 (H-Ras-GG), respectively. The H-Ras-F and H-Ras-GG cells were grown in six-well plates to 70-80% confluence. After treating the cells with lovastatin (25 μM) for 24 hour, the indicated FPP or GGPP analogs (re-suspended in media) were added directly to the cell media. Photographs were taken after an additional 24 hour incubation period.

The test system of assay [3] is H-Ras-F cells. Description: Cell morphology of lovastatin-treated H-Ras-F cells. The assay is classed as cell-based. Conditions: 25 μM lovastatin 24 h, then analog 24 h. As for the experimental part: as §1
Another assay concerns the target recombinant mGGTase I (Homo sapiens, UniProt P49354+P53609). Kind of assay: GGTase I scintillation proximity assay. The assay is classed as biochemical. Conditions: tritiated GGPP. As to the method: (§2) The method is described in detail in Yokama, et al., J. Biol. Chem., Vol. 272, No. 7, pages 3944-3952 (February 1997). The FTase, tritiated FPP, and the peptide were incubated at 37° C. for 30 minutes in a buffer. After incubation, a stop reagent and streptavidin beads (Amersham) were added. The radioactive product was counted on a Wallac Microbeta 1450 scintillation counter. The kinetic fits were derived from a nonlinear least squares computer fit of the data. The Ki values were determined using the same assay system with varying concentrations of tritiated FPP.
GGTase I values were determined in a similar manner using recombinant mGGTase I, tritiated GGPP, and the peptide Biotin-Aha-Thr-Lys-Cys-Val-Ile-Leu-OH.

Assay [4] deals with H-Ras-GG in H-Ras-GG cells. Description: Subcellular fractionation / Western blot of Ras in lovastatin-treated H-Ras-GG cells. To be noted: for Protein geranylgeranylation in cells: summary statement. The assay is classed as cell-based. As to the method: H-Ras-F (A) or H-Ras-GG (B) cells were treated with 25 μM lovastatin for 24 h after which the indicated FPP or GGPP analogs (resuspended in media) were added directly to the cell media. Following an additional 24 h incubation period, the cells were harvested, lysed and the membranes (M) separated from the cytosol (C). After solubilization of the membrane fraction, Ras protein was immunoprecipitated from both the membrane and cytosolic fractions by the addition of the Y13-259 antibody (OP04 from Oncogene Science). The presence of Ras protein in each fraction was analyzed by Western transfer techniques. Incubation with the primary antibody (pan-ras Ab-2 from Oncogene Science) and an anti-mouse HRP conjugate secondary antibody (Amersham) was employed for detection of the ras protein. Blots were developed using Enhanced Chemiluminescence techniques (Amersham). The technique is described in detail by Scholten, et al., Bioorg. Med. Chem., Vol. 4, pages 1537-1543 (1992).
The selectivity and mechanism of the observed cell growth inhibition was further probed by studying the effects of the 3-vinyl and 3-allyl GGPP analogs on the subcellular distribution of the geranylgeranylated protein variant in H-Ras-GG cells in a manner similar to that described for 3-vFPP and 3-alFPP. The Western blot is shown on FIG. 8. With H-Ras-GG cells, as with H-Ras-F cells, blockage of the mevalonate pathway results in a shift in the subcellular location of the Ras protein from the membrane to the cytosol.

Assay [5] addresses recombinant mFTase (affinity purified rat FPTase) (Rattus norvegicus, UniProt Q02293+Q04631). Kind of assay: FTase scintillation proximity assay. The assay is classed as biochemical. Conditions: for IC50: recombinant mFTase, tritiated FPP 0.12 μM, peptide 0.1 μM; for FTase/GGTase: selectivity mFTase against mGGTase I. As for the experimental part: as §2
On the technique in general: In a scintillation proximity assay essentially only radioactivity close to the scintillant gives light.

For assay [6], the system named is NIH 3T3 fibroblasts transfected with H-Ras(61 L)CVLL [H-Ras-GG]. Kind of assay: Soft agar anchorage-independent growth, H-Ras-GG cells. The assay is classed as cell-based. Conditions: 2 weeks, read-out: Mean IC50 (±S.E.) H-Ras-GG. As for the experimental part:
(§3) Presumably, the non-polar alcohols pass through the cell membrane and are then diphosphorylated by an as yet uncharacterized kinase to FPP or GGPP.
(§4) The 3-substituted analogs were evaluated as inhibitors of the growth of ras-transformed cells by comparing their relative degree of activity against an isogenic panel of transformed cell lines, comprised of NIH 3T3 fibroblasts transfected with either H-Ras(61 L) [H-Ras-F], H-Ras(61 L)CVLL [H-Ras-GG], or a transforming form of c-raf [Raf]. The H-Ras-F, H-Ras-GG, and raf transformed NIH3T3 cell lines have been previously described in Cox, et al., Molecular and Cellular Biology, Vol. 12, No. 6, pages 2606-2615 (1992). The cells were grown prior to plating in Dulbecco's modified Eagle medium supplemented with 10% calf serum and 1% antibiotic/antimycotic at 37° C. and 10% CO2. Experiments were carried out in 6-well dishes in a two layer agar system (0.6% bottom layer and 0.3% top layer). Cells were incorporated into the top layer along with varying concentrations of the compound prepared in ethanol. Compound addition occurred only at the time the cells were seeded. Subsequent incubation was at 37° C. with 10% CO2 for 2 weeks. Colonies were stained with 0.5 ml/well of 1 mg/ml p-iodonitrotetrazolium violet (Sigma) for 24 hours prior to quantitation by image analysis.

For assay [7], the system named is NIH 3T3 fibroblasts transfected with H-Ras(61 L) [H-Ras-F]. Kind of assay: Soft agar anchorage-independent growth, H-Ras-F cells. Conditions: soft agar, 2 weeks; read-out: Mean IC50 (±S.E.) H-Ras-F. Type of assay: cell-based. As for the experimental part:
as §3, §4

The test system of assay [8] is NIH 3T3 fibroblasts transfected with a transforming form of c-raf [Raf]. Description: Soft agar anchorage-independent growth, Raf cells. To be noted: 2 weeks, mean of two tests. The assay is classed as cell-based. As for the experimental part:
as §3, §4

Assay [9] deals with H-Ras-F cells. Kind of assay: Incorporation of radiolabel into proteins of H-Ras-F cells. Conditions: 5 μM, 18 h, lovastatin-treated H-Ras-F cells. Type of assay: cell-based. As for the experimental part: H-Ras-F cells were treated with 25 μM lovastatin for 24 h after which the following were added directly to four samples of the cell media: (1) control-untreated, (2) 3-vinyl-1-[^3H]-farnesol (5 μM, 1.34 μCi/ml), (3) 1-[^3H]-FPP (3 μM, 50 μCi/ml; Amersham), and (4) 1-[^3H]-farnesol (3 μM, 50 μCi/ml; American Radiolabeled Chemicals). […] After drying, the membranes were sprayed with En^3Hance (Amersham) and exposed to film (Hyperfilm MP, Amersham) for a period of time prior to developing (4 days for 1-[^3H]-FPP and 1-[^3H]-farnesol) and 28 days for 3-vinyl-1-[^3H]-farnesol). The exposed films are shown on FIG. 8 where the control and radioactive bands are designated as indicated above.

On to “3-Vinyl-7,11-dimethyldodeca-2(Z),6(E),10-trien-1-ol [3-vinyl Farnesol]”, for which the “Effect on growth of H-Ras-F cells” value with H-Ras-F cells [1] (concentration not given) is “complete inhibition of growth”. The “Effect on HPAC cells at 100 nM” value in assay [2] (100 nM) is “cytostasis”. Besides, the “Viable HPAC cell count at 100 nM” value in assay [2] (100 nM, seeded 2×10^5/ml, control well 2.2×10^6 cells) is recorded as ~2×10^5 /well. In addition, the “Effect on HPAC cells at 500 nM” value in assay [2] (listed as 3-Vinylfarnesol) is reported as “complete cytotoxicity”; in assay [2] (listed as 3-vinylfarnesol), “potently cytotoxic”.

Regarding “3-vinyl geranylgeranyl diphosphate [Compound 3-vGGPP]”, in the assay on H-Ras-GG cells, the “Restoration of flattened morphology of lovastatin-treated H-Ras-GG cells” value was “completely restore”. Besides, the “Reversal of rounded morphology of lovastatin-treated H-Ras-F cells” value in the assay with H-Ras-F cells [3] is reported as “restore the flattened morphology of cells”. The IC50 (as a rule, the concentration at which inhibition is half-maximal) at recombinant mGGTase I came to 3.05 µM; in [5], 0.715 µM. Further, the “Membrane localization of H-Ras-GG” value in assay [4] (H-Ras-GG cells, lovastatin-treated) is reported as “resulted in restoration of the membrane localization of H-Ras-GG”. The FTase/GGTase in [5] was found to be 4.3.

As to `C=CC/C(=C\CO)CC/C=C(\C)CC/C=C(\C)CCC=C(C)C` [3-allyl Geranylgeraniol, 3-Allyl-7,11,15-trimethylhexadeca-2(Z),6(E),10(E),14-tetraen-1-ol], the IC50 in assay [6] was 4.6 µM; in [7], greater than 25 µM; in assay [8], greater than 25 µM. The “Protein geranylgeranylation in cells” value in assay [4] was “inhibits protein geranylgeranylation”.

For the molecule `C=C/C(=C\CO)CC/C=C(\C)CC/C=C(\C)CCC=C(C)C` [3-vinyl Geranylgeraniol, 3-Vinyl-7,11,15-trimethylhexadeca-2(Z),6(E),10(E),14-tetraen-1-ol], the concentration for half-maximal inhibition (IC50) stood at 13.9 ± 2.3 µM in assay [6], 18 ± 4.1 µM in [7] and 5.6 µM in assay [8]. In addition, the “Protein geranylgeranylation in cells” value in assay [4] is on record as “restores protein geranylgeranylation in cells”.

Take `[3H]C(O)C=C(C=C)CCC=C(C)CCC=C(C)C` (stereo not drawn) [3-vinyl-1-[^3H]-farnesol]: the “Radiolabel incorporation into protein bands” value with H-Ras-F cells [9] is “the radiolabel migrates with the same protein bands as seen when cells are treated with tritiated farnesol and FPP”.

As to `C=CC/C(=C\COP(=O)(O)OP(=O)(O)O)CC/C=C(\C)CC/C=C(\C)CCC=C(C)C` [Compound 3-alGGPP, 3-Allyl-7,11,15-trimethylhexadeca-2(Z),6(E),10(E),14-tetraene diphosphate], the “Restoration of flattened morphology of lovastatin-treated H-Ras-GG cells” value in the assay on H-Ras-GG cells is “partially restore”. Besides, the “Reversal of rounded morphology of lovastatin-treated H-Ras-F cells” value with H-Ras-F cells [3] is “reversion in morphology”. Besides, the 50% inhibitory concentration (IC50) on recombinant mGGTase I came to 3.38 µM. Moreover, in [5], the IC50 came out at 0.453 µM and the FTase/GGTase is listed as 7.5.

In the case of `CC(C)=CCCC(C)=CCCC(C)=CCO` [farnesol, reference compound], in the assay with H-Ras-F cells [1] (30 μM, data not shown), the “Effect on proliferation of H-Ras-F cells” value was “little effect”. In addition, the “Effect on HPAC cells at 500 nM” value in assay [2] was “no effect”.
